# Data reported in patent publication US20070264354A1, “TREATMENT OF A WOUND WITH A VASODILATOR” (priority 2006, published 2007).
# Where no end group is shown, it is not given here.
# How the values were obtained:
# [1] = system: capsaicin-sensitive cutaneous nerves (small sensory fibers); test: Capsaicin-induced pungency (quality of sensation); format: in vivo, human
# Method: Topical Capsaicin: Capsaicin, 8-methyl-N-vanillyl-6-nonenamide, is a vanilloid neurotoxin that targets somatic small primary afferent neurons. Capsaicin (1% in 75% ethanol, 25% saline) was applied topically for 45 minutes through a central chamber (300 μl capacity, 1 cm diameter) in a clear circular plastic perspex adhered to the skin. Throughout the application, perceptual responses and peak flow values were obtained. The vehicle was applied at different skin sites to 6 normal subjects.
# [2] = system: capsaicin-sensitive cutaneous nerves (small sensory fibers); test: Capsaicin-induced desensitization (Cap-D); format: in vivo, human
# Method: Capsaicin-Induced Desensitization: Eight (8) normal subjects were recruited to ascertain the degree of capsaicin sensitivity of each of the tests described above. Each subject applied topical capsaicin to one forearm and thigh, and the vehicle to the opposing limb in 45 minute applications, 3-4 times daily for 5 days.
# [3] = system: capsaicin-sensitive cutaneous nerves (small sensory fibers); test: Acute topical capsaicin-induced cutaneous blood flow by laser Doppler flowmetry; format: in vivo, human
# [4] = system: capsaicin-sensitive cutaneous nerves (small sensory fibers); test: Heat-step heat pain threshold after acute topical capsaicin (primary hyperalgesia); format: in vivo, human
# Method: In the heat-step procedure, basal blood flow was monitored at resting skin temperature and later at 32° C. The temperature was raised in increments of 2° C. per minute until a maximum temperature value of 48° C. was reached. Sensory responses (specifically, heat pain threshold, HPT) and peak net flows at each increment were documented. A second heat-step test followed an acute application of topical capsaicin to the skin to measure sensitization by HPT, i.e., primary hyperalgesia. Two normal and obese subjects complained that the pungency from the capsaicin was extreme and, as a consequence, the heat-step test for hyperalgesia was not conducted.
# [5] = system: NOS; conditions: animals (Isenberg et al, 2005); cited from earlier work
# [6] = system: diabetic wounds; conditions: cited from earlier work
# [7] = system: leukocyte chemotaxis; conditions: subdermal air sacs, mice (Lawman et al, 1985); cited from earlier work
# [8] = system: wound areas; conditions: 50 ul of 110 ug/ml solution topically (Li et al, 1980); cited from earlier work
# [9] = system: venous stasis ulcers; conditions: CGRP and VIP given together by iontophoresis (Gherardini et al, 1998b); cited from earlier work
molecule,measurement,setting,value
"COc1cc(CNC(=O)CCCCC=CC(C)C)ccc1O [Capsaicin, 8-methyl-N-vanillyl-6-nonenamide]",capsaicin-induced pungency level,[1]; normal subjects,90%
same,share perceiving burn/pain,[1]; normal subjects,approximately 80%
same,share reporting a stinging/prickly sensation,[1]; normal subjects,20%
same,capsaicin-induced pungency level,[1]; obese subjects,45%
same,heat-induced flux in heat-ramp test after Cap-D,"[2]; direct and indirect flow, versus vehicle",decreased significantly
same,dose (mC)-response (flux) curve to transcutaneous electrical stimulation after Cap-D,[2]; indirect site,abolished neurogenic flare
same,blood flow on acute capsaicin challenge after Cap-D,[2]; normal subjects n=8,virtually no increased blood flow
same,pungency on acute capsaicin challenge after Cap-D,[2]; normal subjects n=8,no pungency
same,HPT after capsaicin-induced desensitization,"[2]; topical capsaicin 3-4 times daily for 5 days, normal subjects n=8, maximum temperature utilized",> 48 °C
same,"Capsaicin Latency, Indirect, Normal, Mean","[3]; latency to flare, indirect site, normal subjects",12 min
same,"Capsaicin Latency, Indirect, Obese, Mean","[3]; latency to flare, indirect site, obese subjects",26 min
same,"Capsaicin Latency, Direct, Normal, Mean","[3]; latency to vasodilatory response, direct site, normal subjects",11 min
same,"Capsaicin Latency, Direct, Obese, Mean","[3]; latency to vasodilatory response, direct site, obese subjects",21 min
same,"Capsaicin Flux, Direct, Normal, Mean","[3]; net peak flux, direct flow site, 1% topical capsaicin 45 min, forearm, normal subjects",299 AU
same,"Capsaicin Flux, Direct, Obese, Mean","[3]; net peak flux, direct flow site, 1% topical capsaicin 45 min, forearm, obese subjects",159 AU
same,"Capsaicin Flux, Indirect, Normal, Mean","[3]; net peak flux, indirect flow (flare) site, 1% topical capsaicin 45 min, normal subjects",257 AU
same,"Capsaicin Flux, Indirect, Obese, Mean","[3]; net peak flux, indirect flow (flare) site, 1% topical capsaicin 45 min, obese subjects",128 AU
same,"Heat Step HPT Post-Cap - Hyperalgesia, Normal, Mean","[4]; after acute topical capsaicin, normal subjects",37.1 °C
same,"Heat Step HPT Post-Cap - Hyperalgesia, Obese, Mean","[4]; after acute topical capsaicin, obese subjects",39.8 °C
same,"fall in the HPT, average","[4]; both normal and obese groups, p<0.001",~7 C
same,share of population with pronounced hyperalgesic response,"[4]; normal population, n=11/13",~90%
same,share of population with pronounced hyperalgesic response,"[4]; obese population, n=43/53",Approximately 80%
COC(=O)[C@@H](N)CCCNC(=N)N[N+](=O)[O-] [L-NAME],vessel diameter and blood flow in skin flaps,[5],marked decreases in vessel diameter and blood flow
"N=C(N)NCCC[C@H](N)C(=O)O [LA, L-Arginine]",wound healing,[6]; diabetic rats (Shi et al),improve wound healing
same,wound NOx levels,[6]; diabetic wounds (Shi et al),increased NOx levels to normal values
"NGF: Nerve growth factor, instrumental in the synthesis of sensory neuropeptides in the DRG",leukocyte chemotaxis,[7],significantly increased leukocyte chemotaxis
same,wound healing,[8],markedly accelerated healing
"VIP: Vasoactive Intestinal Polypeptide, peptide released by C-fibers (HSDAVFTDNYTRLRKQMAVKKYLNSILN; ends and bridges not checked; UniProt P01282 125-152, looked up)",healing of venous stasis ulcers,[9],improved healing of venous stasis ulcers
